Experiment: Photochromic properties: UV-visible absorption of THF solutions before and after exposure to a UV source at 365 nm
Type: physicochemical
Conditions: 5 mg in 50 ml of THF, optical path of 1 cm, after exposure to a UV source at 365 nm
Description: The photochromic properties of said compounds (1) to (6) and (C1) to (C5) were evaluated.
Said compounds were dissolved, at the rate of 5 mg in 50 ml of THF, and the UV-visible absorptions (optical path of 1 cm) is then measured before and after exposure to a UV source at 365 nm. The observation of the tints and the intensities developed is done by placing the solutions in the sun or before a solar simulator.

## COc1cc2c3c(c4c(c2cc1OC)CCc1ccccc1-4)OC(c1ccccc1)(c1ccc(N(C)C)c(C)c1)C=C3 (centres unmarked) [(1)]
  λMAX VIS: λ of the band of the lowest energy in the field of the visible spectrum of the compound after exposure: 452 nm

## COc1cc2c3c(c4c(c2cc1OC)CCc1ccccc1-4)OC(c1ccccc1)(c1ccc(N(C)C)c(-c2ccccc2)c1)C=C3 (centres unmarked) [(2)]
  λMAX VIS: λ of the band of the lowest energy in the field of the visible spectrum of the compound after exposure: 465 nm

## COc1ccc2c3c(c4c(c2c1)OC(c1ccccc1)(c1ccc(N(C)C)c(C)c1)C=C4)CCc1ccccc1-3 (centres unmarked) [(3)]
  λMAX VIS: λ of the band of the lowest energy in the field of the visible spectrum of the compound after exposure: 556 nm
  λVIS1: λ of the band of highest energy in the field of the visible spectrum of the compound after exposure: 435 nm

## COc1ccc2c3c(c4c(c2c1)OC(c1ccccc1)(c1ccc(N(C)C)c(-c2ccccc2)c1)C=C4)CCc1ccccc1-3 (centres unmarked) [(4)]
  λMAX VIS: λ of the band of the lowest energy in the field of the visible spectrum of the compound after exposure: 562 nm
  λVIS1: λ of the band of highest energy in the field of the visible spectrum of the compound after exposure: 469 nm

## COc1ccc(C2(c3ccc(N(C)C)c(C)c3)C=Cc3c4c(c5cc6c(cc5c3O2)OCC6)-c2ccccc2CC4)cc1 (centres unmarked) [(5)]
  λMAX VIS: λ of the band of the lowest energy in the field of the visible spectrum of the compound after exposure: 563 nm
  λVIS1: λ of the band of highest energy in the field of the visible spectrum of the compound after exposure: 444 nm

## COc1ccc(C2(c3ccc(N(C)C)c(Br)c3)C=Cc3c4c(c5cc6c(cc5c3O2)OCC6)-c2ccccc2CC4)cc1 (centres unmarked) [(6)]
  λMAX VIS: λ of the band of the lowest energy in the field of the visible spectrum of the compound after exposure: 561 nm
  λVIS1: λ of the band of highest energy in the field of the visible spectrum of the compound after exposure: 443 nm

## COc1cc2c3c(c4c(c2cc1OC)CCc1ccccc1-4)OC(c1ccccc1)(c1ccc(N(C)C)cc1)C=C3 (centres unmarked) [(C1), reference compound]
  λMAX VIS: λ of the band of the lowest energy in the field of the visible spectrum of the compound after exposure: 507 nm

## COc1ccc(C2(c3ccccc3)C=Cc3c(c4c(c5cc(OC)c(OC)cc35)CCc3ccccc3-4)O2)cc1 (centres unmarked) [(C2), reference compound]
  λMAX VIS: λ of the band of the lowest energy in the field of the visible spectrum of the compound after exposure: 441 nm

## COc1ccc2c3c(c4c(c2c1)OC(c1ccccc1)(c1ccc(N(C)C)cc1)C=C4)CCc1ccccc1-3 (centres unmarked) [(C3), reference compound]
  λMAX VIS: λ of the band of the lowest energy in the field of the visible spectrum of the compound after exposure: 584 nm
  λVIS1: λ of the band of highest energy in the field of the visible spectrum of the compound after exposure: 482 nm

## COc1ccc(C2(c3ccccc3)C=Cc3c4c(c5ccc(OC)cc5c3O2)-c2ccccc2CC4)cc1 (centres unmarked) [(C4), reference compound]
  λMAX VIS: λ of the band of the lowest energy in the field of the visible spectrum of the compound after exposure: 548 nm
  λVIS1: λ of the band of highest energy in the field of the visible spectrum of the compound after exposure: 429 nm

## COc1cc2c3c(c4c(c2cc1OC)CCc1ccccc1-4)OC(c1ccccc1)(c1ccc(NC(C)=O)cc1)C=C3 (centres unmarked) [(C5), reference compound]
  λMAX VIS: λ of the band of the lowest energy in the field of the visible spectrum of the compound after exposure: 446 nm

— patent EP1622888B1, “BENZO-, NAPHTHO- AND PHENANTHROCHROMENES SUBSTITUTED WITH AN ARYLAMINE GROUP WITH PHOTOCHROMIC PROPERTIES” (Corning Incorporated, priority 2003, dated 2004)
